Key:
barnyardgrass [1] = experiment: Test A pre-/postemergence herbicide test; format: in vivo, Echinochloa crus-galli
Outline: (§1)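 Approximately 10 days after treatment in the greenhouse, plants were compared with untreated controls and given a 0–100 visual injury rating. Applications: preemergence directed soil spray; postemergence on 2–10 cm plants at the one- to two-leaf stage.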

kochia = experiment: Test A pre-/postemergence herbicide test; format: in vivo, Kochia scoparia
Outline: as §1

ragweed = experiment: Test A pre-/postemergence herbicide test; format: in vivo, Ambrosia elatior
Outline: as §1

ryegrass, Italian = experiment: Test A pre-/postemergence herbicide test; format: in vivo, Lolium multiflorum
Outline: as §1

giant foxtail = experiment: Test A pre-/postemergence herbicide test; format: in vivo, Setaria faberii
Outline: as §1

pigweed = experiment: Test A pre-/postemergence herbicide test; format: in vivo, Amaranthus retroflexus
Outline: as §1

wheat = experiment: Test A pre-/postemergence herbicide test; format: in vivo, Triticum aestivum; conditions: Postemergence
Outline: as §1

corn = experiment: Test A pre-/postemergence herbicide test; format: in vivo, Zea mays; conditions: Postemergence
Outline: as §1

blackgrass = experiment: Test A postemergence herbicide test; format: in vivo, Alopecurus myosuroides
Outline: (§2)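 Potted in loam soil/sand blend; postemergence application at 1–2 leaf stage (2–10 cm). Greenhouse ~10 d. Visual injury vs untreated, 0–100 scale; 100 = complete control.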

galium = experiment: Test A postemergence herbicide test; format: in vivo, Galium aparine
Outline: as §2

rice = experiment: Test B flooded paddy test; format: in vivo, Oryza sativa; conditions: 500 g ai/ha, Flood; scale of 0 to 100 where 0 is no effect and 100 is complete control
Outline: (§3)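 First, plants reach the 2-leaf stage; next, pots are flooded to 3 cm and compound is delivered into the water; finally, after 13 to 15 greenhouse days at constant depth, injury is graded visually from 0 to 100 against controls.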

sedge, umbrella = experiment: Test B flooded paddy test; format: in vivo, Cyperus difformis; conditions: 500 g ai/ha, Flood; scale of 0 to 100 where 0 is no effect and 100 is complete control
Outline: as §3

ducksalad = experiment: Test B flooded paddy test; format: in vivo, Heteranthera limosa; conditions: 500 g ai/ha, Flood; scale of 0 to 100 where 0 is no effect and 100 is complete control
Outline: as §3

barnyardgrass [2] = experiment: Test B flooded paddy test; format: in vivo, Echinochloa crus-galli; conditions: 500 g ai/ha, Flood; scale of 0 to 100 where 0 is no effect and 100 is complete control
Outline: as §3

[3] = Postemergence, 125 g ai/ha, visual rating on 0 to 100 scale (0 no effect, 100 complete control), approx. 10 days
[4] = Postemergence, 500 g ai/ha, 0 to 100 scale (0 no effect, 100 complete control)
[5] = Preemergence, 125 g ai/ha, 0 to 100 scale where 0 is no effect and 100 is complete control
[6] = Preemergence, 500 g ai/ha, visual rating on 0 to 100 scale (0 no effect, 100 complete control)
[7] = 125 g ai/ha, visual rating on 0 to 100 scale (0 no effect, 100 complete control), approx. 10 days
[8] = 500 g ai/ha, 0 to 100 scale (0 no effect, 100 complete control)

Compound	Plant response rating, Barnyardgrass (barnyardgrass [1]; [3])	Plant response rating, Barnyardgrass (barnyardgrass [1]; [4])	Plant response rating, Barnyardgrass (barnyardgrass [1]; [5])	Barnyardgrass plant response rating (barnyardgrass [1]; [6])	Plant response rating, Kochia (kochia; [3])	Plant response rating, Kochia (kochia; [5])	Kochia plant response rating (kochia; [6])	Plant response rating, Ragweed (ragweed; [3])	Plant response rating, Ragweed (ragweed; [5])	Ragweed plant response rating (ragweed; [6])	Plant response rating, Ryegrass, Italian (ryegrass, Italian; [3])	Plant response rating, Ryegrass, Italian (ryegrass, Italian; [5])	Ryegrass, Italian plant response rating (ryegrass, Italian; [6])	Plant response rating, Foxtail, Giant (giant foxtail; [3])	Plant response rating, Foxtail, Giant (giant foxtail; [4])	Plant response rating, Foxtail, Giant (giant foxtail; [5])	Foxtail, Giant plant response rating (giant foxtail; [6])	Plant response rating, Pigweed (pigweed; [3])	Plant response rating, Pigweed (pigweed; [5])	Pigweed plant response rating (pigweed; [6])	also measured
O=C1NCC(c2cccc(Oc3ccccc3)c2)C1C(=O)Nc1ccc(F)cc1F (stereo not drawn) [Compound 331]	20	70	20	80	0	0	0	0	0	20	0	0	20	20	80	50	90	0	0	20	Plant response rating, Kochia (kochia; [4]): 20; Plant response rating, Ragweed (ragweed; [4]): 0; Plant response rating, Ryegrass, Italian (ryegrass, Italian; [4]): 0; Plant response rating, Pigweed (pigweed; [4]): 0; Plant response rating, Wheat (wheat; [7]): 0; Plant response rating, Wheat (wheat; [8]): 0; Plant response rating, Corn (corn; [7]): 0; Plant response rating, Corn (corn; [8]): 0; Plant response rating, Blackgrass (blackgrass; [7]): 0; Plant response rating, Blackgrass (blackgrass; [8]): 30; Plant response rating, Galium (galium; [7]): 0; Plant response rating, Galium (galium; [8]): 30; Plant response rating, Rice (rice): 0; Plant response rating, Sedge, Umbrella (sedge, umbrella): 0; Plant response rating, Ducksalad (ducksalad): 65; Plant response rating, Barnyardgrass (barnyardgrass [2]): 40
CCN1CC(c2ccc(C(F)(F)F)cc2)C(C(=O)Nc2ccccc2F)C1=O (stereo not drawn) [Compound 335]	20	60	0	50	0	40	60	0	0	0	0	0	0	70	90	70	90	0	0	30	Plant response rating, Kochia (kochia; [4]): 0; Plant response rating, Ragweed (ragweed; [4]): 0; Plant response rating, Ryegrass, Italian (ryegrass, Italian; [4]): 0; Plant response rating, Pigweed (pigweed; [4]): 0; Plant response rating, Wheat (wheat; [7]): 0; Plant response rating, Wheat (wheat; [8]): 20; Plant response rating, Corn (corn; [7]): 0; Plant response rating, Corn (corn; [8]): 0; Plant response rating, Blackgrass (blackgrass; [7]): 0; Plant response rating, Blackgrass (blackgrass; [8]): 20; Plant response rating, Galium (galium; [7]): 0; Plant response rating, Galium (galium; [8]): 0; Plant response rating, Rice (rice): 0; Plant response rating, Sedge, Umbrella (sedge, umbrella): 0; Plant response rating, Ducksalad (ducksalad): 65; Plant response rating, Barnyardgrass (barnyardgrass [2]): 0
CCN1CC(c2ccc(C(F)(F)F)cc2)C(C(=O)Nc2cccc(F)c2F)C1=O (stereo not drawn) [Compound 336]	30	60	50	60	0	0	60	0	0	0	0	0	20	70	70	80	90	0	0	20	Plant response rating, Kochia (kochia; [4]): 0; Plant response rating, Ragweed (ragweed; [4]): 0; Plant response rating, Ryegrass, Italian (ryegrass, Italian; [4]): 0; Plant response rating, Pigweed (pigweed; [4]): 0; Plant response rating, Wheat (wheat; [7]): 0; Plant response rating, Wheat (wheat; [8]): 0; Plant response rating, Corn (corn; [7]): 0; Plant response rating, Corn (corn; [8]): 0; Plant response rating, Blackgrass (blackgrass; [7]): 0; Plant response rating, Blackgrass (blackgrass; [8]): 0; Plant response rating, Galium (galium; [7]): 0; Plant response rating, Galium (galium; [8]): 0; Plant response rating, Rice (rice): 0; Plant response rating, Sedge, Umbrella (sedge, umbrella): 0; Plant response rating, Ducksalad (ducksalad): 60; Plant response rating, Barnyardgrass (barnyardgrass [2]): 50
O=C1NCC(c2cccc(-n3cccn3)c2)C1C(=O)Nc1ccccc1C(F)(F)F (stereo not drawn) [Compound 338]	0	30	0	20	0	0	20	0	0	0	0	0	0	20	60	30	80	0	0	0	Plant response rating, Wheat (wheat; [7]): 0; Plant response rating, Corn (corn; [7]): 0; Plant response rating, Corn (corn; [8]): 0; Plant response rating, Blackgrass (blackgrass; [7]): 0; Plant response rating, Blackgrass (blackgrass; [8]): 0; Plant response rating, Galium (galium; [7]): 0; Plant response rating, Rice (rice): 0; Plant response rating, Sedge, Umbrella (sedge, umbrella): 0; Plant response rating, Ducksalad (ducksalad): 0; Plant response rating, Barnyardgrass (barnyardgrass [2]): 0

Source: patent US10294202B2, “Pyrrolidinones as herbicides” (FMC Corporation, priority 2013, dated 2019)
